Test results as given in US11680049B2, “Certain (2S)-N-[(1S)-1-cyano-2-phenylethyl]-1,4-oxazepane-2-carboxamides as dipeptidyl peptidase 1 inhibitors” (AstraZeneca AB, priority 2014, dated 2023).

Tests used:
[1] = Rat quantitative whole-body autoradiography (QWBA) studies, aortic retention; assay type: in vivo
[2] = described in literature (Schmidt et al. 1984); concomitant ultra-structural changes by electron microscopy; cited from earlier work

aortic retention in rat QWBA studies [1]	SMILES	retention in the aorta in QWBA studies [2]
high level of aortic retention	N#Cc1ccc(-c2ccc(C[C@@H](C#N)NC(=O)C3(N)CCOCC3)cc2)cc1 [WO2010/128324 (Ex. 3), 4-amino-N-[(1S)-1-cyano-2-(4′-cyanobiphenyl-4-yl)ethyl]tetrahydro-2H-pyran-4-carboxamide]	–
–	CC(c1ccc(Cl)c(Cl)c1)N1N=C(N)CC1=O (centres unmarked) [muzolimine]	retained selectively in the aorta
